Source: patent publication US11827917B1, “Methods for the conversion of fermentable sugars to ethanol” (Colorado State University Research Foundation, priority 2020, dated 2023)
Marks after values point to notes of the source that are not given here.

Assays:
Format in all cases: cell-based, Saccharomyces cerevisiae
S. cerevisiae JAY 270 [1] = assay: Growth test in liquid YNB medium, low/high nitrogen, serum bottles; settings: 40, 200, 1000 mg/L; low and high nitrogen media
Protocol: A second set of tests was performed in a defined liquid medium, Yeast Nitrogen Base with Glucose (YNB), containing (NH4)2SO4 at either low (1 mM) or high (10 mM) nitrogen content. […] All serum bottles were incubated in a shaker at 30° C. and 150 RPM. Each treatment was performed in biological duplicate. Samples were collected at 0, 5, and 10 hours.

S. cerevisiae JAY 270 [2] = assay: Serum-bottle cultivation in YPD: biomass, glycerol, ethanol yields
Protocol: Procedure: Cultivations in serum bottles were used to determine the effect of the best-performing screened chemicals on the ethanol yield. S. cerevisiae JAY 270 was pre-cultured in 100 mL of YPD medium in 200-mL serum bottles overnight in a shaker at 30° C. and 200 rpm. The precultured yeast cells were collected and washed twice as described above. The cell pellet was resuspended in about 10 mL of 0.8% (w/v) NaCl and the cell concentration was estimated as OD600. TyrOH, PheOH, and TrpOH were added to 30 mL of YPD medium in 100-mL serum bottles at 0.05% and 0.2% respectively. The same amount of DMSO was added to YPD medium to serve as the control for TrpOH and TyrOH treatments. The bottles were inoculated with the prepared yeast cells to obtain an initial cell concentration of OD600=0.2. The serum bottles were sealed and cultured in a shaker at 30° C. and 200 rpm for 24 h. Each condition had three biological replicates.
(§1) Analytical methods: Cell growth was evaluated by monitoring OD600 and cell dry mass concentration. For dry mass measurements, 1.0 mL of culture was transferred to a pre-dried and pre-weighed 2-mL centrifuge tube. The tubes were centrifuged for 10 min at 14000 rpm using a microcentrifuge, and then the cell pellets were dried in an oven for 3 days at 65° C. The cell dry mass was determined by subtracting the initial tube mass from the dried mass of tube with cells. The concentrations of glucose, ethanol, and glycerol were measured via HPLC (Shimadzu LC20A series) outfitted with a refractive index detector and using an Aminex HPX-87H (300×7.8 mm) organic acid column and Cation H+ guard cartridge (Bio Rad Laboratories, Hercules, CA). The column was maintained at 65° C. and the mobile phase was 5 mM sulfuric acid with a flow rate of 0.6 mL/min. Standard compound solutions were used to calibrate the HPLC. Each sample was analyzed three times by HPLC.

S. cerevisiae JAY 238 = assay: Serum-bottle cultivation in YPD, different yeast strains; settings: 0.2%
Protocol: as §1
(§2) Procedure: Seven yeast strains (S. cerevisiae ATCC 26603, S. cerevisiae JAY 238, S. cerevisiae JAY 240, S. cerevisiae JAY 241, S. paradoxus JAY 1502, S. kudriavzezii JAY 1503, and S. mikatae JAY 1504) were pre-cultured in 30 mL of YPD medium in 100 mL serum bottle overnight in a shaker at 30° C. and 200 rpm. The precultured yeast cells of each strains were collected and washed twice. Finally, the cell pellet was resuspended in about 10 mL 0.8% (w/v) NaCl and the OD600 measured. TyrOH, PheOH, and TrpOH were added to 30 mL of YPD medium in 100-mL serum bottles at 0.2% (w/v) respectively. The same amount of DMSO was added in YPD medium and served as control to the TrpOH and TyrOH treatments. The prepared yeast cells were added to obtain the initial cell concentration at OD600=0.2. The serum bottles were sealed and cultured in a shaker at 30° C. and 200 rpm for 24 h. There were three biological replicates for each treatment.

S. cerevisiae JAY 240 = assay: as above; settings: 0.2%
Protocol: as §1, §2

S. cerevisiae JAY 241 = assay: as above; settings: 0.2%
Protocol: as §1, §2

[3] = 0.05% (w/v), YPD, serum bottles
[4] = S. cerevisiae JAY 238, YPD (Table 9B)
[5] = S. cerevisiae JAY 240, YPD (Table 9B)
[6] = S. cerevisiae JAY 241, YPD (Table 9B)

OCCc1ccccc1 [PheOH, 2-phenylethanol]
Inhibitory effect on yeast cell growth in liquid YNB medium (S. cerevisiae JAY 270 [1]): inhibitory at 1000 mg/L in both media, but not at 40 and 200 mg/L | Cell dry mass concentration, % of the control (S. cerevisiae JAY 270 [2]; 0.05%): 85% | Biomass Yield (S. cerevisiae JAY 270 [2]; [3]): 0.088 + 0.001 g/g | Biomass yield % change vs. control (S. cerevisiae JAY 270 [2]; [3]): −11* % | EtOH yield (S. cerevisiae JAY 270 [2]; [3]): 0.40 ± 0.00 g/g | EtOH yield % change vs. control (S. cerevisiae JAY 270 [2]; [3]): 3.7% | Glycerol yield (S. cerevisiae JAY 270 [2]; [3]): 0.031 ± 0.001 g/g | Glycerol yield % change vs. control (S. cerevisiae JAY 270 [2]; [3]): −4.6% | Biomass yield vs. reference (S. cerevisiae JAY 270 [2]; 0.05%, YPD, serum bottles): −10.8% | Ethanol yield (S. cerevisiae JAY 270 [2]; 0.05%, YPD, serum bottles): 0.40 ± 0.00 g/g | Ethanol yield vs. reference (S. cerevisiae JAY 270 [2]; 0.05%, YPD, serum bottles): 3.7% | Glycerol yield (S. cerevisiae JAY 270 [2]; 0.05%, YPD, serum bottles): 0.031 ± 0.001 g/g | Glycerol yield vs. reference (S. cerevisiae JAY 270 [2]; 0.05%, YPD, serum bottles): −4.6% | OD600 (S. cerevisiae JAY 270 [2]; 0.05%, YPD, serum bottles): 3.35 | Cell dry mass concentration, % of the control (S. cerevisiae JAY 270 [2]; 0.2%): 71% | Effect on yeast cell growth (S. cerevisiae JAY 270 [2]; 0.2%): reduced yeast cell growth | Biomass Yield (S. cerevisiae JAY 270 [2]; 0.2% (w/v), YPD, serum bottles): 0.064 + 0.002 g/g | Biomass yield % change vs. control (S. cerevisiae JAY 270 [2]; 0.2% (w/v), YPD, serum bottles): −35* % | EtOH yield (S. cerevisiae JAY 270 [2]; 0.2% (w/v), YPD, serum bottles): 0.41 ± 0.01 g/g | EtOH yield % change vs. control (S. cerevisiae JAY 270 [2]; 0.2% (w/v), YPD, serum bottles): 6.2* % | Glycerol yield (S. cerevisiae JAY 270 [2]; 0.2% (w/v), YPD, serum bottles): 0.025 ± 0.001 g/g | Glycerol yield % change vs. control (S. cerevisiae JAY 270 [2]; 0.2% (w/v), YPD, serum bottles): −25* % | Biomass yield vs. reference (S. cerevisiae JAY 270 [2]; 0.2%, YPD, serum bottles): −35.3% | Effect on ethanol yield (S. cerevisiae JAY 270 [2]; 0.2%, YPD, serum bottles): increased the ethanol yield significantly | Ethanol yield (S. cerevisiae JAY 270 [2]; 0.2%, YPD, serum bottles): 0.41 ± 0.01 g/g | Ethanol yield vs. reference (S. cerevisiae JAY 270 [2]; 0.2%, YPD, serum bottles): 6.2% | Glycerol yield (S. cerevisiae JAY 270 [2]; 0.2%, YPD, serum bottles): 0.025 ± 0.001 g/g | Glycerol yield vs. reference (S. cerevisiae JAY 270 [2]; 0.2%, YPD, serum bottles): −25.1% | OD600 (S. cerevisiae JAY 270 [2]; 0.2%, YPD, serum bottles): 2.44 | Biomass Yield (S. cerevisiae JAY 238; S. cerevisiae JAY 238): 0.059 ± 0.000 g/g | Biomass yield % change vs. control (S. cerevisiae JAY 238; S. cerevisiae JAY 238): −19* % | EtOH yield (S. cerevisiae JAY 238; S. cerevisiae JAY 238): 0.472 ± 0.017 g/g | Glycerol yield (S. cerevisiae JAY 238; S. cerevisiae JAY 238): 0.041 ± 0.002 g/g | Glycerol yield % change vs. control (S. cerevisiae JAY 238; S. cerevisiae JAY 238): −0.2% | DCW (S. cerevisiae JAY 238; S. cerevisiae JAY 238, YPD): 2.00 mg | DCW Δ vs. ref (S. cerevisiae JAY 238; S. cerevisiae JAY 238, YPD): 78.4% | OD600 Δ vs. ref (S. cerevisiae JAY 238; S. cerevisiae JAY 238, YPD): 65.9% | Biomass Yield (S. cerevisiae JAY 238; [4]): 0.059 + 0.000 g/g | Biomass yield Δ vs. ref (S. cerevisiae JAY 238; [4]): −18.9% | Ethanol yield (S. cerevisiae JAY 238; [4]): 0.472 ± 0.017 g/g | Ethanol yield Δ vs. ref (S. cerevisiae JAY 238; [4]): 9.3% | Glycerol yield (S. cerevisiae JAY 238; [4]): 0.041 ± 0.002 g/g | Glycerol yield Δ vs. ref (S. cerevisiae JAY 238; [4]): −0.22% | Biomass Yield (S. cerevisiae JAY 240; S. cerevisiae JAY 240): 0.060 ± 0.000 g/g | Biomass yield % change vs. control (S. cerevisiae JAY 240; S. cerevisiae JAY 240): −19* % | EtOH yield (S. cerevisiae JAY 240; S. cerevisiae JAY 240): 0.448 ± 0.018 g/g | EtOH yield % change vs. control (S. cerevisiae JAY 240; S. cerevisiae JAY 240): +8.2* % | Glycerol yield (S. cerevisiae JAY 240; S. cerevisiae JAY 240): 0.038 ± 0.002 g/g | Glycerol yield % change vs. control (S. cerevisiae JAY 240; S. cerevisiae JAY 240): +2.2% | DCW (S. cerevisiae JAY 240; S. cerevisiae JAY 240, YPD): 2.20 mg | DCW Δ vs. ref (S. cerevisiae JAY 240; S. cerevisiae JAY 240, YPD): 78.6% | OD600 (S. cerevisiae JAY 240; S. cerevisiae JAY 240, YPD): 1.89 | OD600 Δ vs. ref (S. cerevisiae JAY 240; S. cerevisiae JAY 240, YPD): 72.2% | Biomass Yield (S. cerevisiae JAY 240; [5]): 0.060 + 0.000 g/g | Biomass yield Δ vs. ref (S. cerevisiae JAY 240; [5]): −19.1% | Ethanol yield (S. cerevisiae JAY 240; [5]): 0.448 ± 0.018 g/g | Ethanol yield Δ vs. ref (S. cerevisiae JAY 240; [5]): 8.2% | Glycerol yield (S. cerevisiae JAY 240; [5]): 0.038 ± 0.002 g/g | Glycerol yield Δ vs. ref (S. cerevisiae JAY 240; [5]): 2.20% | Biomass Yield (S. cerevisiae JAY 241; S. cerevisiae JAY 241): 0.042 ± 0.001 g/g | Biomass yield % change vs. control (S. cerevisiae JAY 241; S. cerevisiae JAY 241): −28* % | EtOH yield (S. cerevisiae JAY 241; S. cerevisiae JAY 241): 0.399 ± 0.003 g/g | Glycerol yield (S. cerevisiae JAY 241; S. cerevisiae JAY 241): 0.037 ± 0.002 g/g | Glycerol yield % change vs. control (S. cerevisiae JAY 241; S. cerevisiae JAY 241): −31* % | DCW (S. cerevisiae JAY 241; S. cerevisiae JAY 241, YPD): 2.10 mg | DCW Δ vs. ref (S. cerevisiae JAY 241; S. cerevisiae JAY 241, YPD): 80.8% | OD600 (S. cerevisiae JAY 241; S. cerevisiae JAY 241, YPD): 1.45 | OD600 Δ vs. ref (S. cerevisiae JAY 241; S. cerevisiae JAY 241, YPD): 69.9% | Biomass Yield (S. cerevisiae JAY 241; [6]): 0.042 + 0.001 g/g | Biomass yield Δ vs. ref (S. cerevisiae JAY 241; [6]): −27.9% | Ethanol yield (S. cerevisiae JAY 241; [6]): 0.399 ± 0.003 g/g | Ethanol yield Δ vs. ref (S. cerevisiae JAY 241; [6]): 0.4% | Glycerol yield (S. cerevisiae JAY 241; [6]): 0.037 ± 0.002 g/g | Glycerol yield Δ vs. ref (S. cerevisiae JAY 241; [6]): −31.00%
